Results reported in patent publication US20060063736A1, “Compositions and methods for inhibiting mucin-type O-linked glycosylation” (priority 2004, published 2006).

Key:
HEK 293T cells [1] = assay: Jacalin staining of O-linked glycans on HEK 293T cells; assay type: cell-based, human; details: 100 μM, 24 h
Method: (§1) HEK 293T cells were seeded at 20,000 cells/mL in a 24-well plate (Costar) fit with glass cover slips (Fisher). After 24 h of incubation with 100 μM 1-68A, cells were washed twice with PBS (pH 7.4) and fixed with 4% paraformaldehyde-PBS for 1 h at rt. The cells were washed twice with PBS and incubated with permeabilization solution (0.1% Triton X-100 in 0.1% sodium citrate, freshly prepared) for 2 min on ice. After the cells were washed twice with PBS, 50 μL of TUNEL reaction mixture (1:10 dilution, Boehringer Mannheim) was added. The plate was covered with parafilm to avoid evaporative loss and incubated in a humidified atmosphere for 1 h at 37° C. in the dark. The cells were then rinsed three times with PBS and blocked with 2% BSA in PBST (PBS, 0.05% Tween 20) for 30 min at rt. Following one wash with PBS, the cells were incubated with 100 μL of FITC-jacalin (4 μg/mL in PBST) for 1 h at 37° C. in the dark. […] Slides were analyzed by fluorescence microscopy (Zeiss, using Openlab software).
(§2) To determine if the inhibition of O-linked glycosylation and induction of apoptosis by 1-68A and 2-68A were specific to Jurkat cells, the effects of 1-68A on human embryonic kidney (HEK) 293T cells were evaluated. In this case, O-linked glycans on the cell surface were monitored by staining with jacalin, a lectin that binds core 1 structures (Galβ1,3-GalNAcα1-Ser/Thr). […]

HEK 293T cells [2] = assay: TUNEL staining of HEK 293T cells (apoptosis); assay type: cell-based, human; details: 100 μM, 24 h
Method: as §1, §2

mppGalNAcT-11 = target: T1, mppGalNAcT-11 (Mus musculus, UniProt Q921L8); assay: ELLA for ppGalNAcTs, mppGalNAcT-11; assay type: biochemical, murine; details: 20 μM UDP-GalNAc, 50 μM EA2 peptide 4
T1 construct: plasmids encoding truncated secreted ppGalNAcTs-1 to −5, -7, -10 and -11; made in house; host or cells: COS-7
T1 sequence (Q921L8 30-608 limits assumed): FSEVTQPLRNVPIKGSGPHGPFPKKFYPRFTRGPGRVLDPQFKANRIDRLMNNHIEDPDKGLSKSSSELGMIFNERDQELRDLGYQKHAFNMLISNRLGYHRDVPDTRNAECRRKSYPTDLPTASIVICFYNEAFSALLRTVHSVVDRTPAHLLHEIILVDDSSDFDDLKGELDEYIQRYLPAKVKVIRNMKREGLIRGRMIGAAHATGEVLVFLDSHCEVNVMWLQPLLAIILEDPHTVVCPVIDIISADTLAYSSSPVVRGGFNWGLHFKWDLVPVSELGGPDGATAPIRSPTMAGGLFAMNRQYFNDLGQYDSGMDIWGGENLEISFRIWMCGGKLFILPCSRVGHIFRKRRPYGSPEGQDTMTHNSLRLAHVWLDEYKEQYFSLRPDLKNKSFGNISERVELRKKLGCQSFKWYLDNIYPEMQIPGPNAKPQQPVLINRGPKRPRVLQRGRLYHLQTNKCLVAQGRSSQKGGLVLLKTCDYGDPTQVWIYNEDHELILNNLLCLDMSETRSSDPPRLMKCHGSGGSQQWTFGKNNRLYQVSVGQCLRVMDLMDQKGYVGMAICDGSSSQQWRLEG
Method: COS-7 cells were transiently transfected with plasmids encoding truncated secreted ppGalNAcTs-1 to −5, -7, -10 and -11 as previously described. Hagen et al. (1997) J. Biol. Chem. 272:13843-13848. The crude conditioned medium was used as the enzyme source.
Standard reaction conditions for ppGalNAcT assays were as follows. The reaction mixture contained the following components in a final volume of 25 μL: 10 mM MnCl2, 40 mM sodium cacodylate, 40 mM β-mercaptoethanol, 0.1% Triton X-100, pH 6.5, 5 μL of conditioned media, and various concentrations of EA2 peptide 4, UDP-GalNAc and inhibitor. All uridine-based compounds were dissolved in dimethyl sulfoxide (DMSO). […] Reaction rates were linear over the period monitored (20-30 min).
96-Well NeutrAvidin-coated plates were prewashed 3 times with 200 μL of wash buffer (25 mM Tris, 150 mM NaCl, 0.1% bovine serum albumin (BSA) (w/v), and 0.05% Tween (v/v), pH 7.2). […] After 3 washes with 200 μL of PBS, bound HPA-HRP was quantified by the addition of 100 μL of TMB peroxide solution. […] HRP activity was terminated by the addition of 50 μL of 2 N H2SO4 and the resulting solution was analyzed at 450 nm using a UV/Vis microtiter plate reader. The amount of product generated by the ppGalNAcT was extrapolated from absorbance values using an equation fit to the standard curve derived from Origin 6.1 software.

SMILES: O=c1ccn([C@@H]2O[C@H](CON=Cc3ccc(O)c(O)c3O)[C@@H](O)[C@H]2O)c(=O)[nH]1 [1-68A]
- effect on jacalin staining (HEK 293T cells [1]): inhibits
- effect on TUNEL staining compared to untreated cells (HEK 293T cells [2]): increases
- IC50 (mppGalNAcT-11): 39 ± 3 µM

SMILES: O=C(CON=Cc1ccc(O)c(O)c1O)NC[C@H]1O[C@@H](n2ccc(=O)[nH]c2=O)[C@H](O)[C@@H]1O [2-68A]
- IC50 (mppGalNAcT-11): 32 ± 3 µM
